Measurements taken from PMC9653409, “Generative deep learning enables the discovery of a potent and selective RIPK1 inhibitor” (Nature Communications, 2022).
Where “and” joins values, the source holds several entries; their conditions need not be identical. Equal values may be shown once.

What was measured:
HT29-vector cells = assay: TSZ-induced necroptosis in HT29-vector cells (CCK8); type: cell-based
Protocol: Cell necroptosis protection assays were performed in 96-well cell culture plates. Cells were plated in each well and cultured at 37 °C overnight. […] The cell survival rate was determined using a CCK8 cell viability assay kit and CLARIOstar (v5.61). […] All experiments were performed at least two times, and each EC50 value was expressed as mean ± standard deviation (SD).
The lentiCRISPRv2 vector targeting RIPK1 (sgRNA, 5’- […]-3’) was constructed by the Azenta company. HEK 293 T cells were transfected with lentiCRISPRv2 targeting RIPK1 and empty vector using Hieff Trans^TM Liposomal Transfection Reagent (Yeasen), respectively. […] The concentrated viruses were added to HT29 cells along with 8 μg/mL of polybrene (Yeasen) to enhance transfection efficiency. The infection assay was repeated in the next day under the same conditions. Finally, HT29 cells were screened with 3 μg/mL puromycin. Western blot analysis was used to confirm the RIPK1 deletion.

TNFα = assay: DSS-induced IBD mouse model: TNFα in cultured colon supernatant (ELISA); type: in vivo, C57BL/6 female mice
Protocol: DSS (3% w/v) was administered in drinking water ad libitum for 7 d (from day 0 to day 7). DSS solution was replaced three times on day 2, day 4, and day 6. […] Three mice in each group were killed at random on day 7, and distal colon tissues were collected for analysis. The mice weight and survival rate were recorded daily.
(§1) In the TNFα-induced SIRS model, at 6 h after TNFα injection, four mice in each group were killed at random, and the serums were collected, the serum concentrations of IL-1β and IL-6 were measured using ELISA kits (Neobioscience Technology) according to manufacturer’s instructions. […] The supernatant was collected by sequential centrifugation at 500 × g for 10 min and 3000 × g for 10 min. The concentrations of cytokines TNFα, IL-6, and IL-1β were measured using ELISA kits (Neobioscience Technology).

[1] = tested on: phosphorylation of RIPK1, RIPK3, and MLKL; assay: Western blot of necroptotic signaling proteins in HT29 cells; type: cell-based, human; conditions: HT29, TSZ
Protocol: Cell pellets were collected and resuspended in RIPA lysis buffer (Beyotime), to which phenylmethylsulfonyl fluoride, a […], and a phosphatase inhibitor cocktail (Sigma) had been added. […] The supernatants were collected and subjected to western blot analysis.
The cell proteins or tissue proteins were separated in a polyacrylamide gel and transferred to a methanol-activated polyvinylidene fluoride membrane. The membrane was blocked for 2 h in Tris-buffered saline plus Tween-20 containing 5% milk and then immunoblotted sequentially with primary and secondary antibodies. Detection was performed with an ECL chemiluminescence kit (Abbkine). […]

pRIPK1, pRIPK3, pMLKL = assay: DSS-induced IBD mouse model: colon western blot; type: in vivo, C57BL/6 female mice; conditions: 40 mg/kg i.p., day 7
Protocol: The liver in the SIRS model and the colon in the IBD model were harvested, homogenated and sonicated in RIPA lysis buffer.
The cell proteins or tissue proteins were separated in a polyacrylamide gel and transferred to a methanol-activated polyvinylidene fluoride membrane. The membrane was blocked for 2 h in Tris-buffered saline plus Tween-20 containing 5% milk and then immunoblotted sequentially with primary and secondary antibodies. Detection was performed with an ECL chemiluminescence kit (Abbkine). The antibodies used were human RIPK1 antibody (R&D, 334640, 1:1000), mouse RIPK1 antibody (Affinity, DF2642, 1:1000), human phospho-RIP (Ser166) rabbit mAb (Cell Signaling Technologies, 65746, 1:1000), mouse phospho-RIP (Ser321) rabbit mAb (Cell Signaling Technologies, 38662, 1:1000), human RIPK3 (B-2) antibody (Santa Cruz, sc-374639, 1:250), mouse RIPK3 antibody (Abcam, ab62344, 1:1000), human anti-RIP3 (phospho S227) antibody (Abcam, ab209384, 1:2000), mouse anti-RIP3 (phospho T231 + S232) antibody (Abcam, ab205421, 1:500), anti-MLKL (58–70) antibody (Sigma, M6697, 1:250), human anti-MLKL (phospho S358) antibody (Abcam, ab187091, 1:1000), mouse anti-MLKL (phospho S345) antibody (Abcam, ab196436, 1:1000), and β-actin (Proteintech, 66009-1-Ig, 1:1000).

DSS-induced IBD = DSS-induced IBD mouse model: colon H&E and S100a9 immunohistochemistry; type: in vivo, C57BL/6 female mice; conditions: 40 mg/kg i.p., day 7
Protocol: The heart, liver, spleen, lung, kidney and colon tissues were fixed directly in 4% paraformaldehyde (24 h), embedded in paraffin, and stained with H&E following standard procedures. All images were acquired using a Pannoramic MIDI scanner. The colon tissues were fixed in 4% paraformaldehyde for 24 h. The tissues were sliced to a thickness of […], deparaffinized with xylene, and rehydrated with graded ethanol. The tissue sections were then placed in a repair box filled with citric acid (pH 6.0) antigen retrieval buffer for antigen retrieval in a microwave oven followed by the quenching of endogenous peroxidase activity in 3% hydrogen peroxide. The sections were incubated overnight at 4 °C with primary antibody (S100a9, 73425, CST), which was prepared in PBS (pH 7.4) according to the manufacturer’s instructions. The sections were then washed three times with PBS, incubated for 1 h with the appropriate secondary antibodies, and staining with freshly prepared DAB color developing solution. Subsequently, the sections were counterstained with hematoxylin and mounted in non-aqueous mounting medium. All images were acquired using a Pannoramic MIDI scanner.

TNFα-induced SIRS = TNFα-induced SIRS mouse model: H&E histology of organs; type: in vivo, C57BL/6 female mice; conditions: 40 mg/kg i.p.
Protocol: The body temperatures of the mice were continuously monitored until 6 h after TNFα administration. At 6 h after TNFα injection, four mice in each group were killed at random, and the serums, heart, liver, spleen, lung, and kidney tissues were collected for analysis. Mice mortality was continuously monitored until 72 h after TNFα administration.
The heart, liver, spleen, lung, kidney and colon tissues were fixed directly in 4% paraformaldehyde (24 h), embedded in paraffin, and stained with H&E following standard procedures. All images were acquired using a Pannoramic MIDI scanner.

IL-6 = assay: TNFα-induced SIRS mouse model: serum IL-6 (ELISA); type: in vivo, C57BL/6 female mice
Protocol: The body temperatures of the mice were continuously monitored until 6 h after TNFα administration. At 6 h after TNFα injection, four mice in each group were killed at random, and the serums, heart, liver, spleen, lung, and kidney tissues were collected for analysis.
as §1

## CC(C)C(=O)Nc1nc2cc(-c3ccc4c(c3)c(C(=O)NC(C)c3ccccc3)cn4C)ccn2n1 (stereo not shown) [RI-962]
HT29-vector cells; 0.000169 μM + TSZ, read-out: Cell Viability (%) Average
  viability at 0.000169 µM: 34.3%
HT29-vector cells; 0.000508 μM + TSZ, read-out: Cell Viability (%) Average
  viability at 0.000508 µM: 38.1%
HT29-vector cells; 0.001524 μM + TSZ, read-out: Cell Viability (%) Average
  viability at 0.001524 µM: 41.2%
HT29-vector cells; 0.004572 μM + TSZ, read-out: Cell Viability (%) Average
  viability at 0.004572 µM: 64.8%
HT29-vector cells; 0.013717 μM + TSZ, read-out: Cell Viability (%) Average
  viability at 0.013717 µM: 108%
HT29-vector cells; 0.041152 μM + TSZ, read-out: Cell Viability (%) Average
  viability at 0.041152 µM: 109%
HT29-vector cells; 0.123457 μM + TSZ, read-out: Cell Viability (%) Average
  viability at 0.123457 µM: 110%
HT29-vector cells; 0.370370 μM + TSZ, read-out: Cell Viability (%) Average
  viability at 0.37037 µM: 113%
HT29-vector cells; 1.111111 μM + TSZ, read-out: Cell Viability (%) Average
  viability at 1.11111 µM: 102%
HT29-vector cells; HT29-vector, TSZ
  EC50: 4.2 ± 0.2 nM
TNFα; 40 mg/kg i.p., day 7
  content of TNFα in cultured colonic tissue supernatants: substantially reduced
TNFα; Figure 9g, individual replicates 1-3
  TNFα: 139.9 pg/mL and 111.6 pg/mL and 109.1 pg/mL
[1]
  phosphorylation of RIPK1, RIPK3 and MLKL in intact cells: markedly inhibited the phosphorylation of RIPK1 and its downstream signaling proteins RIPK3 and MLKL in a dose-dependent manner
pRIPK1, pRIPK3, pMLKL
  levels of pRIPK1, pRIPK3, and pMLKL in the colon: reduced the levels of pRIPK1, pRIPK3, and pMLKL proteins
DSS-induced IBD
  infiltration by S100a9-positive cells: no infiltration by S100a9-positive cells was observed
  tissue damage in the colons (histopathology): substantially decreased tissue damage
TNFα-induced SIRS
  damage to the liver and kidney (H&E): attenuated damage to the liver and kidney
IL-6; 40 mg/kg i.p., 6 h after TNFα
  concentration of IL-6: remarkably reduced
IL-6; Figure 8d, individual replicates 1-4
  IL-6: 652.9 pg/mL and 1655 pg/mL and 2421 pg/mL and 1071 pg/mL
